Patent US20220211680A1, “COMPOUNDS AND COMPOSITIONS FOR TARGETING MACROPHAGES AND OTHER MANNOSE-BINDING C-TYPE LECTIN RECEPTOR HIGH EXPRESSING CELLS AND METHODS OF TREATING AND DIAGNOSIS USING SAME” (priority 2014, published 2022)

Tests used:
[1] = test system: luciferase-expressing M tuberculosis H37Rv strain (M.tb-Lux); experiment: Anti-bacterial activity against M.tb in human macrophages (luminescence); format: cell-based
[2] = test system: CD206 expressing macrophages; experiment: Apoptosis induction (Annexin-V) in MOs and KS tumor tissue; format: cell-based
Procedure: (§1) CD206 targeting assays were conducted using both in vitro monocyte-derived CD206+ macrophages (MOs) and ex vivo fresh Kaposi Sarcoma (KS) tumor tissue (provided by the AIDS and Cancer Specimen Resource [ACSR]). Tilmanocept-Cy3 with/without a chemo-therapeutic agent (CTA) attached (tilmanocept-Cy3-CTA or tilmanocept-Cy3) interactions with cellular and tumor targets were tracked by flow cytometry and immuno-histochemistry to evaluate Cy3-tilmanocept uptake and targeting capability for delivery of drug into KS tumor cells and TAMs.

[3] = test system: fresh Kaposi Sarcoma (KS) tumor tissue
Procedure: as §1

[4] = molecular target: DC-SIGN (CD209) (Homo sapiens, UniProt Q9NNX6); conditions: AF488-labeled tilmanocept, anti-DC-SIGN Ab staining
Chain of DC-SIGN (CD209) (Q9NNX6 whole entry): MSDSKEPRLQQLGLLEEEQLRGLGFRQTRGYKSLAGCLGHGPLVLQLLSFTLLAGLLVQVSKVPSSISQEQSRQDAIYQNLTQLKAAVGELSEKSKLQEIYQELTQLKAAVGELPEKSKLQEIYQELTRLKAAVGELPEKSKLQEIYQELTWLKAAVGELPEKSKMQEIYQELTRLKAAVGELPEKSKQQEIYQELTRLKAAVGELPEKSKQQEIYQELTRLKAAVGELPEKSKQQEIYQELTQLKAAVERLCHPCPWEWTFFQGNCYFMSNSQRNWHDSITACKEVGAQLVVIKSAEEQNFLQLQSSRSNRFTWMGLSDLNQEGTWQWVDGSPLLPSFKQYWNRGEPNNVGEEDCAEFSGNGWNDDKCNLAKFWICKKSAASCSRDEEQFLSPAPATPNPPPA
Procedure: The tissue sections were first deparaffinized with xylene, followed by rehydration with graded alcohols (100%, 95%). A heat-induced epitope retrieval procedure was carried out by heating the tissue slides in citrate buffer (pH 6.0) at 95° C. for 10 min (31). Each tissue section was rehydrated with PBS buffer, blocked (5% non-fat dry milk in PBS+0.01% sodium azide) for 3 h at room temperature, and then incubated with specific primary Abs using manufacturer-recommended dilutions in a humidified chamber at 4° C. overnight. After extensive washing with PBS, the sections were counter-stained with AF488-conjugated anti-mouse and AF549-conjugated anti-rabbit secondary Abs (double staining) for 1 h at room temperature. The sections were washed again extensively and stained with the nuclear DNA stain DAPI for 10 min at room temperature. After washing and drying at room temperature, the slides were examined by a Flow View 1000 Laser Scanning Confocal microscope (Olympus). The MFI of a randomly selected group of confocal images was quantified using a pixel intensity measurement (NIH Image J program).
FFPE lymph node tissue sections were subjected to the antigen retrieval procedure (see immunohistochemistry method above) followed by incubation with AF488-labeled tilmanocept and staining with anti-DC-SIGN Ab.

NNC(=O)c1ccncc1 [INH, isoniazid]
lowest concentration at which activity against M.tb is maintained [1]: 0.0312 µM

COc1cccc2c1C(=O)c1c(O)c3c(c(O)c1C2=O)C[C@@](O)(C(=O)CO)C[C@@H]3O[C@H]1C[C@H](N)[C@H](O)[C@H](C)O1 [Docorubicin, doxorubicin]
toxicity to CD206 expressing macrophages (Annexin levels, FIG. 17) [2]: no toxicity
apoptosis induction on MOs and in tumor tissue ([2]; Annexin-V, overnight): less effect

dextran 3-[(2-aminoethyl)thio]propyl 17-carboxy-10,13,16-tris(carboxymethyl)-8-oxo-4-thia-7,10,13,16-tetraazaheptadec-1-yl 3-[[2-[[1-imino-2-(D-mannopyranosylthio)ethyl]amino]ethyl]thio]propyl ether complexes [Tilmanocept]
uptake in KS biopsy tissue culture [3]: uptake co-localized with CD206+ macrophages
binding to cells in lymph node tissue sections [4]: bind in clusters to a population of DC-SIGN-positive cells
